Data on 21 molecules can be found in US20240398828A1, “HETERO-ATOM CONTAINING COMPOUNDS AND USES THEREOF” (Kumquat Biosciences Inc., priority 2021, published 2024).

One assay concerns the target T1, PTPN1 (i.e., PTP1B) (Homo sapiens, UniProt P18031).
T1 sequence (P18031 1-435): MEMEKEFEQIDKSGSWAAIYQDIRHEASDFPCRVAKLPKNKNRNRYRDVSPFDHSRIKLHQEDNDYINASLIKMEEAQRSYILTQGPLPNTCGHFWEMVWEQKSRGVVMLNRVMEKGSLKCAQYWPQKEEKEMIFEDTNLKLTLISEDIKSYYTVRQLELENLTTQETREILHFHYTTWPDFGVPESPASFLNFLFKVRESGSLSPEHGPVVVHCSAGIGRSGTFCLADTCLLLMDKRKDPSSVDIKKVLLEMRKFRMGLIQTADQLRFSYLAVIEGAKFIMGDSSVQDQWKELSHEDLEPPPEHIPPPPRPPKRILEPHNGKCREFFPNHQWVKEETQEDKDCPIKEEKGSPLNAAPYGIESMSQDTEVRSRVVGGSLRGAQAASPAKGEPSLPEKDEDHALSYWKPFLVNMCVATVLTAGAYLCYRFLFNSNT
Description: Phosphatase activity assay (DiFMUP substrate), PTP1B. It is filed as biochemical. Particulars: compounds binned ≤1 uM or >1 uM. The essentials:
(§1)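 Enzyme (e.g. PTPN2 0.025 ng/ul) mixed about 2 min with compound at 10 serial concentrations in 50 mM HEPES pH 7.5, 150 mM NaCl, 0.5 mM EDTA, 1 mM DTT, 0.001% Tween-20 at room temperature. DiFMUP added at each enzyme's Km (about 45 μM for PTPN2). DiFMU fluorescence (ex 360/em 450 nm) followed 15-30 min; IC50 from 4-parameter fit of rates.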

Another assay has as its target T2, PTPN2 (i.e., TC-PTP) (Homo sapiens, UniProt P17706).
T2 sequence (P17706 1-415): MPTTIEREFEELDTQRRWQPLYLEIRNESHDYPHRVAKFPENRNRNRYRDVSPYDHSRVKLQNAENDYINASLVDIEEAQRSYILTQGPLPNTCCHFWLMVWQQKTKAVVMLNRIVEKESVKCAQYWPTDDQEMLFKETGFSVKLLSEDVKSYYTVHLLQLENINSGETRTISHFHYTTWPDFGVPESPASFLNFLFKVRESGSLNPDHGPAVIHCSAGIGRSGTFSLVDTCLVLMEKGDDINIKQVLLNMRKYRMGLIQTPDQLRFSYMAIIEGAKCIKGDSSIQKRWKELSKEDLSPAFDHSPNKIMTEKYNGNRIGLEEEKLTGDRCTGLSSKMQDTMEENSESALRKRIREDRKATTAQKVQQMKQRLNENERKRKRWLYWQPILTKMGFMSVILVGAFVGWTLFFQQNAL
Description: Phosphatase activity assay (DiFMUP substrate), PTPN2. Particulars: compounds binned ≤1 uM or >1 uM. It is filed as biochemical. The essentials:
as §1

The IC50 is the point on the concentration scale where inhibition reaches its midpoint. For the molecule `O=C1CN(c2c(O)ccc(-c3cnn(CC4CCCCC4)c3)c2F)S(=O)(=O)N1` [Compound 179, 5-(3-(1-(cyclohexylmethyl)-1H-pyrazol-4-yl)-2-fluoro-6-hydroxyphenyl)-1,2,5-thiadiazolidin-3-one 1,1-dioxide], the IC50 was at most 1000 nM on PTPN1 (i.e., PTP1B) and at most 1000 nM on PTPN2 (i.e., TC-PTP).

In the case of `O=C1CN(c2c(O)ccc(-c3cnn(C4CC4(F)F)c3)c2F)S(=O)(=O)N1` (stereo not drawn) [Compound 424, 5-(3-(1-(2,2-difluorocyclopropyl)-1H-pyrazol-4-yl)-2-fluoro-6-hydroxyphenyl)-1,2,5-thiadiazolidin-3-one 1,1-dioxide], the IC50 is at most 1000 nM on PTPN1 (i.e., PTP1B) and at most 1000 nM at PTPN2 (i.e., TC-PTP).

`O=C1CN(c2c(O)ccc(-c3cn(C4CCCCC4)cn3)c2F)S(=O)(=O)N1` [Compound 459, 5-(3-(1-cyclohexyl-1H-imidazol-4-yl)-2-fluoro-6-hydroxyphenyl)-1,2,5-thiadiazolidin-3-one 1,1-dioxide]: the concentration for half-maximal inhibition (IC50) at PTPN1 (i.e., PTP1B) was at most 1000 nM; at PTPN2 (i.e., TC-PTP) it was at most 1000 nM.

Regarding `O=C1CN(c2c(O)ccc(-c3ccc4cccnc4c3)c2F)S(=O)(=O)N1` [Compound 138, 5-(2-fluoro-6-hydroxy-3-(quinolin-7-yl)phenyl)-1,2,5-thiadiazolidin-3-one 1,1-dioxide], the concentration for half-maximal inhibition (IC50) is at most 1000 nM at PTPN1 (i.e., PTP1B) and at most 1000 nM on PTPN2 (i.e., TC-PTP).

Take `CC(C)CCCc1cc(-c2ccc(O)c(N3CC(=O)NS3(=O)=O)c2F)[nH]n1` [Compound 290, 5-(2-fluoro-6-hydroxy-3-(3-(4-methylpentyl)-1H-pyrazol-5-yl)phenyl)-1,2,5-thiadiazolidin-3-one 1,1-dioxide]: the IC50 was at most 1000 nM on PTPN1 (i.e., PTP1B) and at most 1000 nM at PTPN2 (i.e., TC-PTP).

As for `O=C1CN(c2c(O)ccc(-c3cc(C4CCOC4)n[nH]3)c2F)S(=O)(=O)N1` (stereo not drawn) [Compound 326, 5-(2-fluoro-6-hydroxy-3-(3-(tetrahydrofuran-3-yl)-1H-pyrazol-5-yl)phenyl)-1,2,5-thiadiazolidin-3-one 1,1-dioxide], the half-maximal inhibitory concentration (IC50) was at most 1000 nM on PTPN1 (i.e., PTP1B) and at most 1000 nM on PTPN2 (i.e., TC-PTP).

For the molecule `O=C1CN(c2c(O)ccc(-c3cnn(C4CN(C5CC5)C4)c3)c2F)S(=O)(=O)N1` [Compound 275, 5-(3-(1-(1-cyclopropylazetidin-3-yl)-1H-pyrazol-4-yl)-2-fluoro-6-hydroxyphenyl)-1,2,5-thiadiazolidin-3-one 1,1-dioxide], the half-maximal inhibitory concentration (IC50) on PTPN1 (i.e., PTP1B) is at most 1000 nM; at PTPN2 (i.e., TC-PTP) it was at most 1000 nM.

Take `O=C1CN(c2c(O)ccc(-c3cc(C4CC4(F)F)nn3CC(F)F)c2F)S(=O)(=O)N1` (stereo not drawn) [Compound 491, 5-(3-(3-(2,2-difluorocyclopropyl)-1-(2,2-difluoroethyl)-1H-pyrazol-5-yl)-2-fluoro-6-hydroxyphenyl)-1,2,5-thiadiazolidin-3-one 1,1-dioxide]: the IC50 was at most 1000 nM at PTPN1 (i.e., PTP1B) and at most 1000 nM at PTPN2 (i.e., TC-PTP).

Consider `CC1CCC(n2cc(-c3ccc(O)c(N4CC(=O)NS4(=O)=O)c3F)cn2)CC1` (stereo not drawn) [Compound 304, 5-(2-fluoro-6-hydroxy-3-(1-(4-methylcyclohexyl)-1H-pyrazol-4-yl)phenyl)-1,2,5-thiadiazolidin-3-one 1,1-dioxide], for which the half-inhibitory concentration (IC50) on PTPN1 (i.e., PTP1B) was at most 1000 nM; at PTPN2 (i.e., TC-PTP), at most 1000 nM.

Consider `CN(C)CCn1cc(-c2ccc(O)c(N3CC(=O)NS3(=O)=O)c2F)cn1` [Compound 148, 5-(3-(1-(2-(dimethylamino)ethyl)-1H-pyrazol-4-yl)-2-fluoro-6-hydroxyphenyl)-1,2,5-thiadiazolidin-3-one 1,1-dioxide], for which the IC50 on PTPN1 (i.e., PTP1B) was at most 1000 nM; at PTPN2 (i.e., TC-PTP), at most 1000 nM.

Consider `Cc1nsc(-c2ccc(O)c(N3CC(=O)NS3(=O)=O)c2F)n1` [Compound 425, 5-(2-fluoro-6-hydroxy-3-(3-methyl-1,2,4-thiadiazol-5-yl)phenyl)-1,2,5-thiadiazolidin-3-one 1,1-dioxide], for which the IC50 on PTPN1 (i.e., PTP1B) was at most 1000 nM; at PTPN2 (i.e., TC-PTP) it was at most 1000 nM.

`O=C1CN(c2c(O)ccc(-c3ccc(=O)n(Cc4ccccc4)c3)c2F)S(=O)(=O)N1` [Compound 220, 5-(3-(1-benzyl-6-oxo-1,6-dihydropyridin-3-yl)-2-fluoro-6-hydroxyphenyl)-1,2,5-thiadiazolidin-3-one 1,1-dioxide]: the IC50 on PTPN1 (i.e., PTP1B) is at most 1000 nM; on PTPN2 (i.e., TC-PTP) it was at most 1000 nM.

In the case of `Cn1ncc2cc(-c3ccc(O)c(N4CC(=O)NS4(=O)=O)c3F)cnc21` [Compound 156, 5-(2-fluoro-6-hydroxy-3-(1-methyl-1H-pyrazolo[3,4-b]pyridin-5-yl)phenyl)-1,2,5-thiadiazolidin-3-one 1,1-dioxide], the IC50 on PTPN1 (i.e., PTP1B) is at most 1000 nM; at PTPN2 (i.e., TC-PTP), at most 1000 nM.

In the case of `N=C(N)N1CCC=C(c2ccc(O)c(N3CC(=O)NS3(=O)=O)c2F)C1` [Compound 499, 5-(3-(1,1-dioxido-4-oxo-1,2,5-thiadiazolidin-2-yl)-2-fluoro-4-hydroxyphenyl)-3,6-dihydropyridine-1(2H)-carboximidamide], the IC50 was at most 1000 nM on PTPN1 (i.e., PTP1B) and at most 1000 nM on PTPN2 (i.e., TC-PTP).

Consider `O=C1CN(c2c(O)ccc(-c3cnn(Cc4ccc(F)cc4)c3)c2F)S(=O)(=O)N1` [Compound 186, 5-(2-fluoro-3-(1-(4-fluorobenzyl)-1H-pyrazol-4-yl)-6-hydroxyphenyl)-1,2,5-thiadiazolidin-3-one 1,1-dioxide], for which the IC50 on PTPN1 (i.e., PTP1B) is at most 1000 nM; on PTPN2 (i.e., TC-PTP), at most 1000 nM.

On to `O=C1CN(c2c(O)ccc(-c3cn(C4CCCC4)cn3)c2F)S(=O)(=O)N1` [Compound 302, 5-(3-(1-cyclopentyl-1H-imidazol-4-yl)-2-fluoro-6-hydroxyphenyl)-1,2,5-thiadiazolidin-3-one 1,1-dioxide], for which the half-maximal inhibitory concentration (IC50) was at most 1000 nM at PTPN1 (i.e., PTP1B) and at most 1000 nM on PTPN2 (i.e., TC-PTP).

For `CC(C)CCNC1CCN(c2ccc(O)c(N3CC(=O)NS3(=O)=O)c2F)C1` (stereo not drawn) [Compound 163, 5-(2-fluoro-6-hydroxy-3-(3-(isopentylamino)pyrrolidin-1-yl)phenyl)-1,2,5-thiadiazolidin-3-one 1,1-dioxide], the IC50 is at most 1000 nM on PTPN1 (i.e., PTP1B) and at most 1000 nM on PTPN2 (i.e., TC-PTP).

Regarding `O=C1CN(c2c(O)ccc(-c3cn(C4CCC(F)(F)CC4)cn3)c2F)S(=O)(=O)N1` [Compound 268, 5-(3-(1-(4,4-difluorocyclohexyl)-1H-imidazol-4-yl)-2-fluoro-6-hydroxyphenyl)-1,2,5-thiadiazolidin-3-one 1,1-dioxide], the IC50 on PTPN1 (i.e., PTP1B) was at most 1000 nM; on PTPN2 (i.e., TC-PTP), at most 1000 nM.

Consider `O=C1CN(c2c(O)ccc(-c3ccc(NS(=O)(=O)CC4CC4)cc3)c2F)S(=O)(=O)N1` [Compound 231, 1-cyclopropyl-N-(3′-(1,1-dioxido-4-oxo-1,2,5-thiadiazolidin-2-yl)-2′-fluoro-4′-hydroxy-[1,1′-biphenyl]-4-yl)methanesulfonamide], for which the IC50 is at most 1000 nM on PTPN1 (i.e., PTP1B) and at most 1000 nM on PTPN2 (i.e., TC-PTP).

For the molecule `O=C1CN(c2c(O)ccc(C3=CC4CCC3N4)c2F)S(=O)(=O)N1` (stereo not drawn) [Compound 475, 5-(3-(7-azabicyclo[2.2.1]hept-2-en-2-yl)-2-fluoro-6-hydroxyphenyl)-1,2,5-thiadiazolidin-3-one 1,1-dioxide], the IC50 at PTPN1 (i.e., PTP1B) is at most 1000 nM; on PTPN2 (i.e., TC-PTP) it was over 1000 nM.

Take `CN1CCc2cc(-c3ccc(O)c(N4CC(=O)NS4(=O)=O)c3F)ccc2C1` [Compound 109, 5-(2-fluoro-6-hydroxy-3-(2-methyl-1,2,3,4-tetrahydroisoquinolin-6-yl)phenyl)-1,2,5-thiadiazolidin-3-one 1,1-dioxide]: the IC50 on PTPN1 (i.e., PTP1B) was at most 1000 nM; at PTPN2 (i.e., TC-PTP), at most 1000 nM.
